These results are taken from patent US7256185B1, “Control of selective estrogen receptor modulators” (Eastern Virginia Medical School, priority 1997, dated 2007).

Read-outs that look alike come from different tables or passages of the source.

The procedure of the experiment: 1. Clomiphene is used alone at 100 mg/day for the treatment of endometriosis. […] Levonorgestrel at 75 mcg/day is then also administered.
2. Raloxifene at 500 mg/day and medroxprogesterone acetate at 12 mg/day were administrated to treat leiomyoma.
5. Clomiphene is used alone at 100 mg/day for the treatment of endometriosis. […] Danazol at 100 to 800 mg/day is then also administered.

[1] abbreviates: raloxifene 500 mg/day and medroxprogesterone acetate 12 mg/day administered together, leiomyoma.
Setting [2] is: clomiphene ZU isomer 50 mg/day and norgestimate 100 mcg/day coadministered.

For `O=C(c1ccc(OCCN2CCCCC2)cc1)c1c(-c2ccc(O)cc2)sc2cc(O)ccc12` [Raloxifene], the serum estrogen result under setting [1] is recorded as “remained at physiological levels”. As to `C#C[C@]1(O)CC[C@H]2[C@@H]3CCC4=Cc5oncc5C[C@]4(C)[C@H]3CC[C@@]21C` [Danazol, danazol], the serum estrogen result (danazol 100 to 800 mg/day added to clomiphene 100 mg/day after serum estrogen reached 500 pg/ml, endometriosis) is on record as “retreated to physiological value”. Regarding `C#C[C@]1(OC(C)=O)CC[C@H]2[C@@H]3CCC4=CC(=NO)CC[C@@H]4[C@H]3CC[C@@]21CC` (mixture of isomers) [norgestimate], under setting [2], the serum estrogen entry was “remained at physiological levels”. Take `CCN(CC)CCOc1ccc(/C(=C(\Cl)c2ccccc2)c2ccccc2)cc1` (single isomer, unassigned) [Clomiphene ZU isomer]: the serum estrogen entry under setting [2] is “remained at physiological levels”. Take `CC(=O)O[C@]1(C(C)=O)CC[C@H]2[C@@H]3C[C@H](C)C4=CC(=O)CC[C@]4(C)[C@H]3CC[C@@]21C` [medroxprogesterone acetate]: under setting [1], the serum estrogen result is “remained at physiological levels”.
